Source: patent US7763616B2, “Piperazine-piperidines with CXCR3 antagonist activity” (Schering Corporation, priority 2005, dated 2010)
Like-named read-outs stand apart in the source and are kept apart here.

Target: T1, human CXCR3 (N-delta 4) (Homo sapiens, UniProt P49682)
T1 construct: CD8 leader (N); Flag tag; expressed in transfected cells; membrane preparation
T1 sequence (P49682 5-368 limits assumed): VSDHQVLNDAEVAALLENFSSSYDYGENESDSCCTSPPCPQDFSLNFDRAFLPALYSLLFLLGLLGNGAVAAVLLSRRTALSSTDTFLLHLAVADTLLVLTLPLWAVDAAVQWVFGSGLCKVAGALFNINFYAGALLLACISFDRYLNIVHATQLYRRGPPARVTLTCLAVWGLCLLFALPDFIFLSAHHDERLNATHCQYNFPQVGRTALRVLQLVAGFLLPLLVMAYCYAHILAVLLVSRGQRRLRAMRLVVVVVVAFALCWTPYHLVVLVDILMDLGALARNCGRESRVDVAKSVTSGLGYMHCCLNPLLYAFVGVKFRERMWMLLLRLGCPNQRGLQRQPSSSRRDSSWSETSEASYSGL
Assay: Human CXCR3 (N-delta 4) Scintillation Proximity Assay (SPA), [125I] IP-10 binding
Settings: Ba/F3-hCXCR3 (N-delta 4) membranes, 25 pM [125I] IP-10
Excerpt: The inventive compounds can readily be evaluated to determine activity at the CXCR3 receptors by known methods, such as, for example, development of a human CXCR3 (N-delta 4) Binding Assay.
Cloning and Expression of Human CXCR3 (N-delta 4):
The DNA encoding human CXCR3 was cloned by PCR using human genomic DNA (Promega, Madison, Wis.) as a template. The PCR primers were designed based on the published sequence of human orphan receptor GPR9 (1) with incorporated restriction sites, a Kozak consensus sequence, CD8 leader and Flag tag. The PCR product was subcloned into the mammalian expression vector pME18Sneo, a derivative of the SR-alpha expression vector (designated as pME18Sneo-hCXCR3 (N-delta 4).
IL-3-dependent mouse pro-B cells Ba/F3 were transfected by electroporation in 0.4 ml Dulbecco's PBS containing 4×10^6 cells with 20 μg of pME18Sneo-hCXCR3 (N-delta 4) plasmid DNA. Cells were pulsed at 400 Volts, 100 OHMs, […]. The transfected cells were under selection with 1 mg/ml G418 (Life Technologies, Gaithersburg, Md.). G418-resistant Ba/F3 clones were screened for CXCR3 expression by specific binding of [^125I] IP10 (NEN Life Science Products, Boston, Mass.).
Preparation of Ba/F3-hCXCR3 (N-delta 4) Membranes:
Ba/F3 cells expressing human CXCR3 (N-delta 4) were pelleted and resuspended in the lysis buffer containing 10 mM HEPES, pH 7.5 and Complete® protease inhibitors (1 tablet per 100 ml) (Boehringer Mannheim, Indianapolis, Ind.) at a cell density of 20×10^6 cells per ml. After 5 minute incubation on ice, cells were transferred to 4639 cell disruption bomb (Parr Instrument, Moline, Ill.) and applied with 1,500 psi of nitrogen for 30 minutes on ice. Large cellular debris was removed by centrifugation at 1,000×g. Cell membrane in the supernatant was sedimented at 100,000×g. The membrane was resuspended in the lysis buffer supplemented with 10% sucrose and stored at −80° C. Total protein concentration of the membrane was determined by BCA method from Pierce (Rockford, Ill.).
Human CXCR3 (N-delta 4) Scintillation Proximity Assay (SPA):
For each assay point, 2 μg of membrane was preincubated for 1 hr with 300 μg wheat germ agglutinin (WGA) coated SPA beads (Amersham, Arlington Heights, Ill.) in the binding buffer (50 mM HEPES, 1 mM CaCl2, 5 mM MgCl2, 125 mM NaCl, 0.002% NaN3, 1.0% BSA) at room temperature. The beads were spun down, washed once, resuspended in the binding buffer and transferred to a 96-well Isoplate (Wallac, Gaithersburg, Md.). 25 pM of [^125I] IP-10 with tested compounds in a series of titration were added to start the reaction. After 3 hr reaction at room temperature, the amount of [^125I] IP10 bound to the SPA beads was determined with a Wallac 1450 Microbeta counter.

For `CC[C@H]1CN(c2cc3[nH]c(C(F)(F)F)nc3cc2Cl)CCN1C1CCN(Cc2ccc(Cl)cc2F)CC1` [Compound 9], the IC50 (IC50 ratings, read-out: IC50) was < 25 nM.
For `CC[C@H]1CN(c2nc3[nH]c(=O)[nH]c3nc2Cl)CCN1C1CCN(C(=O)c2ccc(Cl)nc2N)CC1` [Compound 12], the IC50 (IC50 ratings, read-out: IC50) was < 25 nM.
Work on `CC[C@H]1CN(c2cc3[nH]c(=O)[nH]c3cc2Cl)CCN1C1CCN(Cc2ccc(Cl)cc2F)CC1` [Compound 21] yielded an IC50 (IC50 ratings, read-out: IC50) of 25 to 100 nM.
In the case of `CC[C@H]1CN(c2nc3[nH]c(=O)[nH]c3nc2Cl)CCN1C1CCN(Cc2ccc(-n3cccn3)cc2)CC1` [Compound 17], the IC50 (IC50 ratings, read-out: IC50) is reported as < 25 nM.
In the case of `CC[C@H]1CN(c2cc3c(cc2Cl)nc(C(F)(F)F)n3C)CCN1C1CCN(Cc2ccc(Cl)cc2F)CC1` [Compound 37], the IC50 (IC50 ratings, read-out: IC50) is reported as > 100 nM.
For `CCc1nc2nc(N3CCN(C4CCN(Cc5ccc(Cl)cc5F)CC4)[C@@H](CC)C3)c(Cl)nc2c(=O)n1CC` [Compound 15], the IC50 (IC50 ratings, read-out: IC50) was < 25 nM.
For `CC[C@H]1CN(c2cc3[nH]c(=S)[nH]c3cc2Cl)CCN1C1CCN(Cc2ccc(Cl)cc2F)CC1` [Compound 28], the IC50 (IC50 ratings, read-out: IC50) was > 100 nM.
`CC[C@H]1CN(c2nc3c(nc2Cl)C(=O)NCCNC(=O)N3)CCN1C1CCN(C(=O)c2ccc(Cl)nc2N)CC1` [Compound 34] was tested, and the IC50 (IC50 ratings, read-out: IC50) was > 100 nM.
`CC[C@H]1CN(c2nc3c(nc2Cl)CNc2c(c(=O)c2=O)N3)CCN1C1CCN(Cc2ccc(Cl)cc2F)CC1` [Compound 1] was tested, and the IC50 (read-out: IC50 value) was 0.3 nM and the IC50 (IC50 ratings, read-out: IC50) was < 25 nM.
In the case of `CC[C@H]1CN(c2nc3[nH]c(=O)[nH]c3nc2Cl)CCN1C1CCN(C(=O)c2ccc(Cl)cc2)CC1` [Compound 19], the IC50 (IC50 ratings, read-out: IC50) is reported as 25 to 100 nM.
With `CC[C@H]1CN(c2nc3[nH]c(=O)[nH]c3nc2Cl)CCN1C1CCN(Cc2ccc(Cl)cc2F)CC1` [Compound 6] the IC50 (IC50 ratings, read-out: IC50) was < 25 nM.
`CC[C@H]1CN(c2nc3c(nc2Cl)C(=O)NCCN3)CCN1C1CCN(C(=O)c2ccc(Cl)nc2N)CC1` [Compound 18] gave an IC50 (IC50 ratings, read-out: IC50) of 25 to 100 nM.
In the case of `CCc1nc2nc(N3CCN(C4CCN(Cc5ccc(Cl)cc5F)CC4)[C@@H](CC)C3)c(O)nc2c(=O)n1CC` [Compound 38], the IC50 (IC50 ratings, read-out: IC50) is reported as > 100 nM.
With `CC[C@H]1CN(c2nc3[nH]c(=O)n(C)c(=O)c3nc2Cl)CCN1C1CCN(Cc2ccc(Cl)cc2)CC1` [Compound 7] the IC50 (IC50 ratings, read-out: IC50) was < 25 nM.
With `CC[C@H]1CN(c2nc3c(nc2Cl)CNC(=O)N3)CCN1C1CCN(C(=O)c2ccc(Cl)nc2N)CC1` [Compound 16] the IC50 (IC50 ratings, read-out: IC50) was < 25 nM.
With `CC[C@H]1CN(c2nc3[nH]c(=O)n(C(=O)OC(C)(C)C)c3nc2Cl)CCN1C1CCN(Cc2ccc(Cl)cc2)CC1` [Compound 8] the IC50 (IC50 ratings, read-out: IC50) was < 25 nM.
With `CC[C@H]1CN(c2cc3c(cc2Cl)nc(NS(C)(=O)=O)n3S(C)(=O)=O)CCN1C1CCN(Cc2ccc(Cl)cc2F)CC1` [Compound 35] the IC50 (IC50 ratings, read-out: IC50) was > 100 nM.
For `CC[C@H]1CN(c2nc3[nH]c(=O)[nH]c3nc2Cl)CCN1C1CCN(C(C#N)c2ccc(Cl)cc2)CC1` (mixture of isomers) [Compound 33], the IC50 (IC50 ratings, read-out: IC50) was > 100 nM.
`CC[C@H]1CN(c2nc3c(nc2Cl)CN/C(=N\C#N)N3)CCN1C1CCN(Cc2ccc(Cl)cc2F)CC1` [Compound 5] was tested, and the IC50 (IC50 ratings, read-out: IC50) was < 25 nM.
For `CC[C@H]1CN(c2nc3[nH]c(=O)[nH]c3nc2Cl)CCN1C1CCN(Cc2ccc(Cl)cc2)CC1` [Compound 2], the IC50 (IC50 ratings, read-out: IC50) was < 25 nM.
In the case of `CCNC(=O)n1cnc2cc(Cl)c(N3CCN(C4CCN(Cc5ccc(Cl)cc5F)CC4)[C@@H](CC)C3)cc21` [Compound 31], the IC50 (IC50 ratings, read-out: IC50) is reported as > 100 nM.
`CC[C@H]1CN(c2nc3[nH]c(=O)[nH]c3nc2Cl)CCN1C1CCN([C@H](C(=O)OC)c2ccc(Cl)cc2)CC1` [Compound 30] was tested, and the IC50 (IC50 ratings, read-out: IC50) was > 100 nM.
For `CC[C@H]1CN(c2nc3[nH]c(=O)n(Cc4ccc(Cl)cc4C#N)c3nc2Cl)CCN1C1CCN(Cc2ccc(Cl)cc2C#N)CC1` [Compound 26], the IC50 (IC50 ratings, read-out: IC50) was > 100 nM.
With `CC[C@H]1CN(c2nc3ncn(CC)c(=O)c3nc2Cl)CCN1C1CCN(Cc2ccc(Cl)cc2)CC1` [Compound 20] the IC50 (IC50 ratings, read-out: IC50) was 25 to 100 nM.
For `CC[C@H]1CN(c2cc3[nH]cnc3cc2Cl)CCN1C1CCN(Cc2ccc(Cl)cc2F)CC1` [Compound 25], the IC50 (IC50 ratings, read-out: IC50) was > 100 nM.
For `CC[C@H]1CN(c2nc3[nH]c(=O)[nH]c3nc2Cl)CCN1C1CCN([C@@H](CO)c2ccc(Cl)cc2)CC1` [Compound 3], the IC50 (IC50 ratings, read-out: IC50) was < 25 nM.
With `CC[C@H]1CN(c2nc3[nH]c(=O)[nH]c3nc2Cl)CCN1C1CCN([C@H](CO)c2ccc(Cl)cc2)CC1` [Compound 11] the IC50 (IC50 ratings, read-out: IC50) was < 25 nM.
`CC[C@H]1CN(c2cc3[nH]c(-c4ccccc4)nc3cc2Cl)CCN1C1CCN(Cc2ccc(Cl)cc2F)CC1` [Compound 32] was tested, and the IC50 (IC50 ratings, read-out: IC50) was > 100 nM.
For `CC[C@H]1CN(c2nc3c(nc2Cl)[nH]c(=O)n3Cc2ccc(Cl)cc2C#N)CCN1C1CCN(Cc2ccc(Cl)cc2C#N)CC1` [Compound 22], the IC50 (IC50 ratings, read-out: IC50) was 25 to 100 nM.
In the case of `CC[C@H]1CN(c2nc3c(nc2Cl)CNC(=O)N3)CCN1C1CCN(Cc2ccc(Cl)cc2F)CC1` [Compound 4], the IC50 (IC50 ratings, read-out: IC50) is reported as < 25 nM.
In the case of `CC[C@H]1CN(c2cc3[nH]c(=O)c(=O)[nH]c3cc2Cl)CCN1C1CCN(Cc2ccc(Cl)cc2F)CC1` [Compound 29], the IC50 (IC50 ratings, read-out: IC50) is reported as > 100 nM.
Compound `CC[C@H]1CN(c2nc3nc(C)n(CC)c(=O)c3nc2Cl)CCN1C1CCN(Cc2ccc(Cl)cc2F)CC1` [Compound 23] has an IC50 (IC50 ratings, read-out: IC50) of 25 to 100 nM.
`CC[C@H]1CN(c2nc3[nH]c(=O)[nH]c3nc2Cl)CCN1C1CCN(Cc2ccc(Cl)cc2C#N)CC1` [Compound 13] was tested, and the IC50 (IC50 ratings, read-out: IC50) was < 25 nM.
With `CC[C@H]1CN(c2cc3[nH]cnc3cc2Cl)CCN1C1CCN(Cc2ccc(Cl)cc2F)CC1` [Compound 24] the IC50 (IC50 ratings, read-out: IC50) was 25 to 100 nM.
